Converted amounts (≈) assume the structure as drawn.
Tests used:
[1] = tested on: Methicillin resistant Staphylococcus aureus (MRSA) strain ATCC 33591; details: ATCC 33591
[2] = tested on: MU50 Staphylococcus aureus (MRSA) - VISA type strain; format: cell-based
Excerpt: (§1) Cation-adjusted Mueller-Hinton broth (Oxoid Ltd., Basingstoke, UK and Trek Diagnostic Systems Ltd., East Grinstead, UK) (supplemented with 5% laked horse blood for Streptococcus spp., Corynebacterium jeikeium and Listeria monocytogenes) was used for aerobic bacteria, with an initial inoculum of approximately 10^5 colony-forming units (CFU)/mL.

[3] = tested on: Enterococcus gallinarum vancomycin-resistant (VanC) clinical isolate; format: cell-based
Excerpt: as §1

[4] = tested on: Staphylococcus epidermidis methicillin-resistant clinical isolate; format: cell-based
Excerpt: as §1

[5] = tested on: HT2001254 Staphylococcus aureus (MRSA) - PVL positive; format: cell-based
Excerpt: as §1

[6] = tested on: Staphylococcus aureus - multi-drug-resistant clinical isolate; format: cell-based
Excerpt: as §1

[7] = tested on: Klebsiella aerogenes - multi-drug resistant clinical isolate; format: cell-based
Excerpt: as §1

[8] = tested on: Staphylococcus saprophyticus - antibiotic susceptible clinical isolate; format: cell-based
Excerpt: as §1

[9] = tested on: Enterococcus faecalis high-level gentamicin-resistant clinical isolate; format: cell-based
Excerpt: as §1

[10] = tested on: Corynebacterium jeikeium - antibiotic-susceptible clinical isolate; format: cell-based
Excerpt: as §1

[11] = tested on: Corynebacterium jeikeium - multi-drug resistant clinical isolate; format: cell-based
Excerpt: as §1

[12] = tested on: Enterococcus faecium vancomycin-resistant (VanA) clinical isolate; format: cell-based
Excerpt: as §1

[13] = tested on: Staphylococcus aureus - teicoplanin-intermediate clinical isolate; format: cell-based
Excerpt: as §1

[14] = tested on: Staphylococcus aureus ATCC 25923 - antibiotic-susceptible control strain; format: cell-based
Excerpt: as §1

[15] = tested on: Staphylococcus aureus - methicillin-resistant clinical isolate; format: cell-based
Excerpt: as §1

[16] = tested on: Enterococcus faecium vancomycin-susceptible clinical isolate; format: cell-based
Excerpt: as §1

[17] = tested on: Streptococcus pneumoniae - penicillin-susceptible clinical isolate; format: cell-based
Excerpt: as §1

[18] = tested on: Pseudomonas aeruginosa ATCC27853 - antibiotic-susceptible type strain; format: cell-based
Excerpt: as §1

[19] = tested on: Group G Streptococcus - macrolide-resistant clinical isolate; format: cell-based
Excerpt: as §1

[20] = tested on: Escherichia coli ATCC25922 - antibiotic-susceptible type strain; format: cell-based
Excerpt: as §1

[21] = tested on: Streptococcus bovis - antibiotic-susceptible clinical isolate; format: cell-based
Excerpt: as §1

[22] = tested on: Morganella morganii - multi-drug resistant clinical isolate; format: cell-based
Excerpt: as §1

[23] = tested on: Listeria monocytogenes - antibiotic-susceptible clinical isolate; format: cell-based
Excerpt: as §1

[24] = tested on: Enterococcus faecalis vancomycin-resistant (VanB) clinical isolate; format: cell-based
Excerpt: as §1

[25] = tested on: Group G Streptococcus - antibiotic-susceptible clinical isolate; format: cell-based
Excerpt: as §1

[26] = tested on: Enterococcus faecium vancomycin-resistant (VanB) clinical isolate; format: cell-based
Excerpt: as §1

[27] = tested on: Pseudomonas aeruginosa - multi-drug resistant clinical isolate; format: cell-based
Excerpt: as §1

[28] = tested on: Staphylococcus aureus ATCC 29213 - antibiotic-susceptible control strain; format: cell-based
Excerpt: as §1

[29] = tested on: Stenotrophomonas maltophilia - antibiotic-susceptible clinical isolate; format: cell-based
Excerpt: as §1

[30] = tested on: Escherichia coli ATCC32518 - β-lactamase positive type strain; format: cell-based
Excerpt: as §1

[31] = tested on: EMRSA15 Staphylococcus aureus (MRSA) - SSCmec type 4; format: cell-based; details: EMRSA15 - SSCmec type 4
Excerpt: as §1

[32] = tested on: Enterobacter sp - multi-drug resistant clinical isolate; format: cell-based
Excerpt: as §1

[33] = tested on: Group C Streptococcus - antibiotic-susceptible clinical isolate; format: cell-based
Excerpt: as §1

[34] = tested on: Streptococcus pyogenes - Macrolide (M-type) resistance clinical isolate; format: cell-based; details: - Macrolide (M-type) resistance clinical isolate
Excerpt: as §1

[35] = tested on: Enterobacter sp - antibiotic-susceptible clinical isolate; format: cell-based
Excerpt: as §1

[36] = tested on: Propionibacterium acnes- antibiotic-resistant clinical isolate; details: P. acnes antibiotic-resistant
[37] = tested on: Staphylococcus aureus, strain ATCC 25923; details: ATCC 25923
[38] = tested on: Haemophilus influenzae - β -lactamase positive clinical isolate
[39] = tested on: C. albicans; details: Table 5
[40] = tested on: P. aeruginosa; details: Table 5

## CCCCCCNC(=O)[C@H](CCCNC(=N)N)NC(=O)[C@H](Cc1c(C(C)(C)C)[nH]c2c(C(C)(C)C)cc(C(C)(C)C)cc12)NC(=O)[C@@H](N)CCCNC(=N)N [Compound 8]
[1]
  MRSA (MIC): 2 mg/L
[2]
  MIC: 4 mg/L (≈ 5.21 µM)
[3]
  MIC: 4 mg/L (≈ 5.21 µM)
[4]
  MIC: 2 mg/L (≈ 2.6 µM)
[5]
  MIC: 4 mg/L (≈ 5.21 µM)
[6]
  MIC: 4 mg/L (≈ 5.21 µM)
[7]
  MIC: 8 mg/L (≈ 10.4 µM)
[8]
  MIC: 0.5 mg/L (≈ 0.651 µM)
[9]
  MIC: 8 mg/L (≈ 10.4 µM)
[10]
  MIC: 4 mg/L (≈ 5.21 µM)
[11]
  MIC: 2 mg/L (≈ 2.6 µM)
[12]
  MIC: 4 mg/L (≈ 5.21 µM)
[13]
  MIC: 4 mg/L (≈ 5.21 µM)
[14]
  MIC: 4 mg/L (≈ 5.21 µM)
[15]
  MIC: 4 mg/L (≈ 5.21 µM)
[16]
  MIC: 4 mg/L (≈ 5.21 µM)
[17]
  MIC: 8 mg/L (≈ 10.4 µM)
[18]
  MIC: 8 mg/L (≈ 10.4 µM)
[19]
  MIC: 8 mg/L (≈ 10.4 µM)
[20]
  MIC: 4 mg/L (≈ 5.21 µM)
[21]
  MIC: 8 mg/L (≈ 10.4 µM)
[22]
  MIC: 8 mg/L (≈ 10.4 µM)
[23]
  MIC: 8 mg/L (≈ 10.4 µM)
[24]
  MIC: 8 mg/L (≈ 10.4 µM)
[25]
  MIC: 8 mg/L (≈ 10.4 µM)
[26]
  MIC: 4 mg/L (≈ 5.21 µM)
[27]
  MIC: 4 mg/L (≈ 5.21 µM)
[28]
  MIC: 4 mg/L (≈ 5.21 µM)
[29]
  MIC: 4 mg/L (≈ 5.21 µM)
[30]
  MIC: 8 mg/L (≈ 10.4 µM)
[31]
  MIC: 4 mg/L (≈ 5.21 µM)
[32]
  MIC: 8 mg/L (≈ 10.4 µM)
[33]
  MIC: 8 mg/L (≈ 10.4 µM)
[34]
  MIC: 8 mg/L (≈ 10.4 µM)
[35]
  MIC: 8 mg/L (≈ 10.4 µM)
[36]
  MIC: 2 mg/L (≈ 2.6 µM)
[37]
  S. aureus (MIC): 2 mg/L
[38]
  MIC: 4 mg/L (≈ 5.21 µM)
[39]
  C. albicans (MIC): 5 mg/L
[40]
  P. aeruginosa (MIC): 5 mg/L

— US20230338609A1, “MEDICAL DEVICES AND MATERIALS COMPRISING BIODEGRADABLE POLYESTERS” (AMICOAT AS, priority 2020, published 2023)
